In EPA's ToxRefDB 2:

What was measured:
dog [1] = conditions: Chronic toxicity, beagle, Oral, Feed, dose end: 52 week
rat [2] = conditions: Prenatal developmental toxicity study, sprague dawley, Oral, Gavage/Intubation, dose end: 15 GD
rat [3] = conditions: Chronic toxicity, sprague dawley, Oral, Feed, dose end: 98 week, group: cholinesterase
rat [4] = conditions: Developmental neurotoxicity range-finding study, sprague dawley, Oral, Feed, dose end: 21 PND, group: cannot be grouped
rat [5] = conditions: Subchronic oral toxicity in rodents, sprague dawley, Feed, dose end: 90 day
rabbit = conditions: Prenatal developmental toxicity study, new zealand white, Oral, Gavage/Intubation, dose end: 19 GD
mouse [6] = conditions: Carcinogenicity; cd1; Oral; Feed; dose end: 113 week; group: systemic; systemic / pathology microscopic / intestine small / adenocarcinoma + systemic / pathology microscopic / intestine small / adenoma + …
mouse [7] = conditions: Carcinogenicity, cd1, Oral, Feed, dose end: 22 month, group: systemic
dog [8] = conditions: Chronic toxicity; beagle; Oral; Capsule; dose end: 12 month; group: systemic; systemic / in life observation / clinical signs / emesis + systemic / in life observation / clinical signs / mucoid stools + systemic / in …
rat [9] = conditions: Acute oral toxicity, wistar, [Not Specified], dose end: 7 day, group: systemic, systemic / clinical chemistry / calcium / calcium + systemic / urinalysis / calcium / calcium
[10] = group: cholinesterase, cholinesterase / cholinesterase / cholinesterase / cholinesterase (che) + cholinesterase / cholinesterase / cholinesterase / plasma …
[11] = group: systemic, systemic / organ weight / lung / relative to brain weight
[12] = group: developmental, developmental / developmental malformation / bone / short + systemic / in life observation / body weight / fetal weight
[13] = group: maternal, systemic / in life observation / body weight / body weight gain + reproductive / reproductive performance / postimplantation loss / …
[14] = cholinesterase / cholinesterase / cholinesterase / plasma cholinesterase (che)
[15] = cholinesterase / cholinesterase / cholinesterase / plasma cholinesterase (che) + cholinesterase / cholinesterase / cholinesterase / brain …
[16] = group: cholinesterase, cholinesterase / cholinesterase / cholinesterase / plasma cholinesterase (che)
[17] = group: cholinesterase, cholinesterase / cholinesterase / cholinesterase / plasma cholinesterase (che) + cholinesterase / cholinesterase / cholinesterase / brain …
[18] = group: systemic, systemic / in life observation / body weight / body weight gain + systemic / in life observation / clinical signs / aggressive behavior + …
[19] = group: developmental, developmental / developmental malformation / bone / delayed ossification + developmental / developmental malformation / bone / full …
[20] = group: maternal, systemic / in life observation / body weight / body weight gain + systemic / in life observation / clinical signs / anorexia + systemic / in…
[21] = systemic / pathology microscopic / intestine small / neoplasm nos + systemic / pathology microscopic / stomach / neoplasm nos + systemic / …

`CCOP(=S)(OCC)Oc1cc(C)nc(C(C)C)n1` [Diazinon] was tested, and the LEL (dog [1]; group: cholinesterase, cholinesterase / cholinesterase / cholinesterase / cholinesterase (che)) was 0.015 mg/kg/day, the NEL (dog [1]; group: cholinesterase, cholinesterase / cholinesterase / cholinesterase / cholinesterase (che) + cholinesterase / cholinesterase / cholinesterase / brain …) was 0.0032 mg/kg/day and the LOAEL (dog [1]; [10]) was 0.02 mg/kg/day. The NOAEL (dog [1]; [10]) was 0.0037 mg/kg/day, the LOAEL (dog [1]; group: systemic, systemic / clinical chemistry / [other] / [other] + systemic / in life observation / food consumption / food consumption) was 4.5 mg/kg/day and the NOAEL (dog [1]; group: systemic, systemic / clinical chemistry / [other] / [other] + systemic / in life observation / food consumption / food consumption + systemic / in …) was 0.02 mg/kg/day. For the same molecule, the LEL (dog [1]; [11]) was 0.0037 mg/kg/day, the NEL (dog [1]; [11]) was < 0.0037 mg/kg/day and the LOAEL (rat [2]; group: developmental, developmental / developmental malformation / bone / short) was 100 mg/kg/day. The LEL (rat [2]; [12]) was 100 mg/kg/day, the NEL (rat [2]; [12]) was 20 mg/kg/day and the NOAEL (rat [2]; [12]) was 20 mg/kg/day. The LOAEL (rat [2]; group: maternal, systemic / in life observation / body weight / body weight gain) was 100 mg/kg/day, the LEL (rat [2]; [13]) was 100 mg/kg/day and the NEL (rat [2]; [13]) was 20 mg/kg/day. The NOAEL (rat [2]; [13]) was 20 mg/kg/day, the LEL (rat [3]; [14]) was 0.06 mg/kg/day and the LOAEL (rat [3]; [14]) was 0.06 mg/kg/day. For the same molecule, the NEL (rat [3]; [15]) was 0.004 mg/kg/day, the NOAEL (rat [3]; [15]) was 0.004 mg/kg/day and the LOAEL (rat [4]; [14]) was 0.063 mg/kg/day. The LEL (rat [4]; [15]) was 0.063 mg/kg/day, the NEL (rat [4]; [15]) was 0.0125 mg/kg/day and the NOAEL (rat [4]; [15]) was 0.0125 mg/kg/day. The LEL (rat [5]; [16]) was 0.3 mg/kg/day, the LOAEL (rat [5]; [16]) was 0.3 mg/kg/day and the NEL (rat [5]; [17]) was 0.03 mg/kg/day. The NOAEL (rat [5]; [17]) was 0.03 mg/kg/day, the LEL (rat [5]; [18]) was 168 mg/kg/day and the LOAEL (rat [5]; [18]) was > 168 mg/kg/day. The NEL (rat [5]; [18]) was 15 mg/kg/day and the NOAEL (rat [5]; [18]) was ≥ 168 mg/kg/day.

`O=C1C2CC=CCC2C(=O)N1SC(Cl)(Cl)Cl` (stereo unspecified) [Captan] gave an LEL (rabbit; [19]) of 30 mg/kg/day, an LOAEL (rabbit; [19]) of 30 mg/kg/day and an NEL (rabbit; [19]) of 10 mg/kg/day. The NOAEL (rabbit; [19]) was 10 mg/kg/day, the LEL (rabbit; [20]) was 30 mg/kg/day and the LOAEL (rabbit; [20]) was 30 mg/kg/day. For the same molecule, the NEL (rabbit; [20]) was 10 mg/kg/day, the NOAEL (rabbit; [20]) was 10 mg/kg/day and the LEL (mouse [6]) was 599 mg/kg/day. For the same molecule, the LOAEL (mouse [6]) was > 1880 mg/kg/day, the NEL (mouse [6]) was < 599 mg/kg/day and the NOAEL (mouse [6]) was ≥ 1880 mg/kg/day. It also gave an LOAEL (mouse [7]; systemic / in life observation / body weight / body weight + systemic / in life observation / food consumption / food consumption) of 925 mg/kg/day, an LEL (mouse [7]; systemic / pathology microscopic / intestine small / neoplasm nos + systemic / pathology microscopic / stomach / neoplasm nos) of 60.9 mg/kg/day and an NEL (mouse [7]; [21]) of 15.1 mg/kg/day. The NOAEL (mouse [7]; [21]) was 123 mg/kg/day, the LEL (dog [8]) was 300 mg/kg/day and the LOAEL (dog [8]) was 300 mg/kg/day. It also gave an NEL (dog [8]) of 60 mg/kg/day and an NOAEL (dog [8]) of 60 mg/kg/day.

`COc1ccc2c(c1)c(CC(=O)O)c(C)n2C(=O)c1ccc(Cl)cc1` [Indomethacin] was tested, and the LEL (rat [9]) was 20 mg/kg/day, the LOAEL (rat [9]) was > 20 mg/kg/day and the NEL (rat [9]) was < 20 mg/kg/day. For the same molecule, the NOAEL (rat [9]) was ≥ 20 mg/kg/day.
